Source: US20240368096A1 (Enanta Pharmaceuticals, Inc., priority 2022, published 2024)

Tested on: HBV
Assay: HBV infection in HepG2-NTCP cells (HBeAg AlphaLISA in supernatants)
Type: cell-based
Conditions: HBV infection of HepG2-NTCP cells; HBeAg in supernatants at day 8 post infection; read-out: Cellular EC50
Summary of the method: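 Readout was day-8 supernatant HBeAg by AlphaLISA, with EC50 set against DMSO controls and binned A<0.1 μM, B 0.1-1 μM, C>1 μM. Compounds were added 2 h before HBV (2000 GE/cell, 4% PEG, 0.5% DMSO) to HepG2-NTCP A3 cells; from day 1 medium held 2.5% DMSO.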

| EC50 [µM] | SMILES |
| --- | --- |
| > 1 | Cc1ccc(C(=O)O)c(C)c1-c1cc2c(cc1Cl)N(c1ccccc1)C[C@@H](C1CCCCC1)N(C)S2(=O)=O [Example 147, 3-((3R)-7-chloro-3-cyclohexyl-2-methyl-1,1-dioxido-5-phenyl-2,3,4,5-tetrahydrobenzo[f][1,2,5]thiadiazepin-8-yl)-2,4-dimethylbenzoic acid] |

Same assay, conditions: Hepatitis B virus, 192 h, read-out: Cellular EC50 (μM)

| SMILES | EC50 [µM] |
| --- | --- |
| CCOP(=O)(OCC)c1cccc(-c2cc3c(cc2Cl)N(c2ccccc2)C[C@@H](CC(C)C)N(C)S3(=O)=O)c1 [Example 169] | > 1 |

Same assay, conditions: Hepatitis B virus, 192 h; HBV infection of HepG2-NTCP cells; HBeAg in supernatants at day 8 post infection; read-out: Cellular EC50

| EC50 [µM] | SMILES |
| --- | --- |
| > 1 | Cc1c(C(=O)O)cccc1-c1cc2c(cc1Cl)N(c1ccccc1)C[C@@H](C1CCCCC1)N(C)S2(=O)=O [Example 144, (R)-3-(7-chloro-3-cyclohexyl-2-methyl-1,1-dioxido-5-phenyl-2,3,4,5-tetrahydrobenzo[f][1,2,5]thiadiazepin-8-yl)-2-methylbenzoic acid] |
| > 1 | Cc1ccc(C(=O)O)cc1-c1cc2c(cc1Cl)N(c1ccccc1)C[C@@H](C1CCCCC1)N(C)S2(=O)=O [Example 145, (R)-3-(7-chloro-3-cyclohexyl-2-methyl-1,1-dioxido-5-phenyl-2,3,4,5-tetrahydrobenzo[f][1,2,5]thiadiazepin-8-yl)-4-methylbenzoic acid] |
| > 1 | Cc1ccc(C(=O)O)c(C)c1-c1cc2c(cc1Cl)N(c1ccccc1)C[C@@H](C1CCCCC1)N(C)S2(=O)=O [Example 146, 3-((3R)-7-chloro-3-cyclohexyl-2-methyl-1,1-dioxido-5-phenyl-2,3,4,5-tetrahydrobenzo[f][1,2,5]thiadiazepin-8-yl)-2,4-dimethylbenzoic acid] |
| 0.1 to 1 | CN1[C@H](C2CCCCC2)CN(c2ccccc2)c2cc(Cl)c(-c3cccc(C(=O)O)c3O)cc2S1(=O)=O [Example 148] |
| < 0.1 | CN1[C@H](C2CCCCC2)CN(c2ccccc2)c2cc(Cl)c(-c3cccc(C(=O)O)c3F)cc2S1(=O)=O [Example 149, (R)-3-(7-chloro-3-cyclohexyl-2-methyl-1,1-dioxido-5-phenyl-2,3,4,5-tetrahydrobenzo[f][1,2,5]thiadiazepin-8-yl)-2-fluorobenzoic acid] |
| < 0.1 | CN1[C@H](C2CCCCC2)CN(c2ccccc2)c2cc(Cl)c(-c3cc(C(=O)O)ccc3F)cc2S1(=O)=O [Example 150, (R)-3-(7-chloro-3-cyclohexyl-2-methyl-1,1-dioxido-5-phenyl-2,3,4,5-tetrahydrobenzo[f][1,2,5]thiadiazepin-8-yl)-4-fluorobenzoic acid] |
| 0.1 to 1 | CN1[C@H](C2CCCCC2)CN(c2ccccc2)c2cc(Cl)c(-c3cc(C(=O)O)ccc3Cl)cc2S1(=O)=O [Example 151, (R)-4-chloro-3-(7-chloro-3-cyclohexyl-2-methyl-1,1-dioxido-5-phenyl-2,3,4,5-tetrahydrobenzo[f][1,2,5]thiadiazepin-8-yl)benzoic acid] |
| > 1 | CN1[C@H](C2CCCCC2)CN(c2ccccc2)c2cc(Cl)c(-c3cccc(C(=O)O)c3Cl)cc2S1(=O)=O [Example 152, (R)-2-chloro-3-(7-chloro-3-cyclohexyl-2-methyl-1,1-dioxido-5-phenyl-2,3,4,5-tetrahydrobenzo[f][1,2,5]thiadiazepin-8-yl)benzoic acid] |
| < 0.1 | CN1[C@H](C2CCCCC2)CN(c2ccccc2)c2cc(Cl)c(-c3cc4c(c(C(=O)O)c3)OCO4)cc2S1(=O)=O [Example 153, (R)-6-(7-chloro-3-cyclohexyl-2-methyl-1,1-dioxido-5-phenyl-2,3,4,5-tetrahydrobenzo[f][1,2,5]thiadiazepin-8-yl)benzo[d][1,3]dioxole-4-carboxylic acid] |
| 0.1 to 1 | CN1[C@H](C2CCCCC2)CN(c2ccccc2)c2cc(Cl)c(-c3cc4c(c(C(=O)O)c3)OC(F)(F)O4)cc2S1(=O)=O [Example 154, (R)-6-(7-chloro-3-cyclohexyl-2-methyl-1,1-dioxido-5-phenyl-2,3,4,5-tetrahydrobenzo[f][1,2,5]thiadiazepin-8-yl)-2,2-difluorobenzo[d][1,3]dioxole-4-carboxylic acid] |
| 0.1 to 1 | CCOc1ccc(-c2cc3c(cc2Cl)N(c2ccccc2)C[C@@H](C2CCCCC2)N(C)S3(=O)=O)cc1C(=O)O [Example 155, (R)-5-(7-chloro-3-cyclohexyl-2-methyl-1,1-dioxido-5-phenyl-2,3,4,5-tetrahydrobenzo[f][1,2,5]thiadiazepin-8-yl)-2-ethoxybenzoic acid] |
| < 0.1 | CN1[C@H](C2CCCCC2)CN(c2ccccc2)c2cc(Cl)c(-c3ccc(O)c(C(=O)O)c3)cc2S1(=O)=O [Example 156, (R)-5-(7-chloro-3-cyclohexyl-2-methyl-1,1-dioxido-5-phenyl-2,3,4,5-tetrahydrobenzo[f][1,2,5]thiadiazepin-8-yl)-2-hydroxybenzoic acid] |
| 0.1 to 1 | CN1[C@H](C2CCCCC2)CN(c2ccccc2)c2cc(F)c(-c3ccc(N)c(C(=O)O)c3)cc2S1(=O)=O [Example 158] |
| 0.1 to 1 | CN1[C@H](C2CCC2)CN(c2ccccc2)c2cc(Cl)c(-c3ccc(O)c(C(=O)O)c3)cc2S1(=O)=O [Example 159] |
| < 0.1 | CC(C)C[C@@H]1CN(c2ccccc2)c2cc(Cl)c(-c3ccc(O)c(C(=O)O)c3)cc2S(=O)(=O)N1C [Example 160, (R)-5-(7-chloro-3-isobutyl-2-methyl-1,1-dioxido-5-phenyl-2,3,4,5-tetrahydrobenzo[f][1,2,5]thiadiazepin-8-yl)-2-hydroxybenzoic acid] |
| 0.1 to 1 | CC(C)C[C@@H]1CN(c2ccccc2)c2cc(Cl)c(-c3cc(OC(F)(F)F)cc(C(=O)O)c3)cc2S(=O)(=O)N1C [Example 161] |
| > 1 | CC(C)C[C@@H]1CN(c2ccccc2)c2cc(Cl)c(-c3cccc(C4(C(=O)O)CC4)c3)cc2S(=O)(=O)N1C [Example 162] |
| < 0.1 | CC(C)C[C@@H]1CN(c2ccccc2)c2cc(Cl)c(-c3ccc(OC(F)(F)F)c(C(=O)O)c3)cc2S(=O)(=O)N1C [Example 163, (R)-5-(7-chloro-3-isobutyl-2-methyl-1,1-dioxido-5-phenyl-2,3,4,5-tetrahydrobenzo[f][1,2,5]thiadiazepin-8-yl)-2-(trifluoromethoxy)benzoic acid] |
| 0.1 to 1 | CC(C)C[C@@H]1CN(c2ccccc2)c2cc(Cl)c(-c3cc(C(=O)O)cc(C(F)(F)F)c3)cc2S(=O)(=O)N1C [Example 164] |
| 0.1 to 1 | CC(C)C[C@@H]1CN(c2ccccc2)c2cc(Cl)c(-c3ccc(C(F)F)c(C(=O)O)c3)cc2S(=O)(=O)N1C [Example 165] |
| > 1 | CC(C)C[C@@H]1CN(c2ccccc2)c2cc(Cl)c(-c3ccc(Cl)c(C(N)=O)c3)cc2S(=O)(=O)N1C [Example 166] |

| EC50 [µM] | SMILES |
| --- | --- |
| > 1 | CC(C)C[C@@H]1CN(c2ccccc2)c2cc(Cl)c(-c3cccc(C(N)=O)c3)cc2S(=O)(=O)N1C [Example 167] |
| > 1 | CC(C)C[C@@H]1CN(c2ccccc2)c2cc(Cl)c(-c3cccc(S(N)(=O)=O)c3)cc2S(=O)(=O)N1C [Example 168] |
| > 1 | CC(C)C[C@@H]1CN(c2ccccc2)c2cc(Cl)c(-c3ccc4onc(N)c4c3)cc2S(=O)(=O)N1C [Example 170] |
| > 1 | CC(C)C[C@@H]1CN(c2ccccc2)c2cc(Cl)c(-c3cccc(/C=C/C(=O)O)c3)cc2S(=O)(=O)N1C [Example 171] |
| > 1 | CC(C)C[C@@H]1CN(c2ccccc2)c2cc(Cl)c(-c3cccc(CCC(=O)O)c3)cc2S(=O)(=O)N1C [Example 172] |
| > 1 | CC(C)C[C@@H]1CN(c2ccccc2)c2cc(Cl)c(-c3cccc(CC(=O)O)c3)cc2S(=O)(=O)N1C [Example 173] |
| 0.1 to 1 | CN1[C@H](C2CCCCC2)CN(c2ccccc2)c2cc(Cl)c(-c3ccc(OC(F)(F)F)c(C(=O)O)c3)cc2S1(=O)=O [Example 174] |
| > 1 | CN1[C@H](C2CCCCC2)CN(c2ccccc2)c2cc(Cl)c(-c3cccc(S(N)(=O)=O)c3)cc2S1(=O)=O [Example 175] |
| < 0.1 | CN1[C@H](C2CCCCC2)CN(c2ccccc2)c2cc(F)c(-c3ccc(F)c(C(=O)O)c3)cc2S1(=O)=O [Example 176] |
| < 0.1 | CN1[C@H](C2CCC2)CN(c2ccccc2)c2cc(Cl)c(-c3ccc(OC(F)(F)F)c(C(=O)O)c3)cc2S1(=O)=O [Example 177] |
| > 1 | CN1[C@H](C2CCC2)CN(c2ccccc2)c2cc(Cl)c(-c3cccc(S(N)(=O)=O)c3)cc2S1(=O)=O [Example 178] |
| 0.1 to 1 | COc1cc(-c2cc3c(cc2Cl)N(c2ccccc2)C[C@@H](CC(C)C)N(C)S3(=O)=O)cc(C(=O)O)c1F [Example 179, (R)-5-(7-chloro-3-isobutyl-2-methyl-1,1-dioxido-5-phenyl-2,3,4,5-tetrahydrobenzo[f][1,2,5]thiadiazepin-8-yl)-2-fluoro-3-methoxybenzoic acid] |
| 0.1 to 1 | CC(C)C[C@@H]1CN(c2ccccc2)c2cc(Cl)c(-c3ccc4o[nH]c(=O)c4c3)cc2S(=O)(=O)N1C [Example 180] |
| > 1 | CC(C)C[C@@H]1CN(c2ccccc2)c2cc(Cl)c(-c3ccc4[nH]ncc4c3)cc2S(=O)(=O)N1C [Example 181] |
| 0.1 to 1 | COC(=O)c1noc2ccc(-c3cc4c(cc3Cl)N(c3ccccc3)C[C@@H](CC(C)C)N(C)S4(=O)=O)cc12 [Example 182] |
| < 0.1 | CC(C)C[C@@H]1CN(c2ccccc2)c2cc(Cl)c(-c3ccc([N+](=O)[O-])c(C(=O)O)c3)cc2S(=O)(=O)N1C [Example 183] |
| > 1 | CC(C)C[C@@H]1CN(c2ccccc2)c2cc(Cl)c(-c3cccc(S(C)(=N)=O)c3)cc2S(=O)(=O)N1C (stereo partly shown) [Example 184] |
| 0.1 to 1 | CC(C)C[C@@H]1CN(c2ccccc2)c2cc(Cl)c(-c3ccc4oncc4c3)cc2S(=O)(=O)N1C [Example 185] |
| < 0.1 | CC(C)C[C@@H]1CN(c2ccccc2)c2cc(Cl)c(-c3ccc(C(F)(F)F)c(C(=O)O)c3)cc2S(=O)(=O)N1C [Example 186] |
| 0.1 to 1 | CC(C)C[C@@H]1CN(c2ccccc2)c2cc(Cl)c(-c3ccc(C#N)c(C(=O)O)c3)cc2S(=O)(=O)N1C [Example 187] |
